From article PMC11475281, “A Novel Liver Cancer-Selective Histone Deacetylase Inhibitor Is Effective against Hepatocellular Carcinoma and Induces Durable Responses with Immunotherapy” (ACS Pharmacology & Translational Science, 2024)
pIC50: −log10 of the molar value. Where two headings read alike, the source gives them in different places.

Columns and labels:
Hep-G2 cells [1] = experiment: Immunoblotting of PD-L1 and PD-1 expression; format: cell-based, human; conditions: 24 h, SAHA 5 and 10 μM, STR-V-53 10 and 20 μM
Method: (§1) Figure 3 Effects of STR-V-53 on intracellular markers of HDAC inhibition, antitumor immune response, and apoptosis. (a) STR-V-53 upregulates the levels of acetylated H4 and tubulin in Hep-G2 cells. Hep-G2 cells were treated with DMSO or 0.1% DMSO solution of SAHA (1.25 μM) and STR-V-53 (1.25 μM, 2.5 μM). Cells were treated for 5 h before lysis. Data are from two independent experiments. (b) STR-V-53 upregulates PD-L1 and downregulates PD-1 expressions in Hep-G2 cells. Cells were treated with DMSO or 0.1% DMSO solution of SAHA (5 μM and 10 μM) and STR-V-53 (10 and 20 μM) for 24 h. (c) STR-V-53 and SAHA caused upregulation of the levels of CD54 in the Hep-G2 cell line. Cells were treated with DMSO or 0.1% DMSO solution of SAHA (5 and 10 μM) and STR-V-53 (5, 10, and 20 μM) for 24 h. […] Cells were treated with DMSO or 0.1% DMSO solution of SAHA (5 μM) and STR-V-53 (10 and 20 μM).
One of the consequences of histone deacetylase inhibition is the alteration of tumor immunogenicity in favor of enhanced antitumor immune responses.[28],[29] Specifically, HDACi robustly upregulates PD-L1 in human and murine cell lines and patient tumors.[30],[31] To investigate the effects of our glycosylated HDACi on immune checkpoint molecules, we used immunoblotting to probe for the expression levels of PD-L1 and PD-1 in Hep-G2 cells incubated with lead compound STR-V-53 for 24 h. We used SAHA and DMSO as positive and negative controls, respectively.

Hep-G2 cells [2] = experiment: Immunoblotting of CD54 (ICAM-1) expression; format: cell-based, human; conditions: 24 h, STR-V-53 at IC50 and 2× IC50
Method: as §1
HDACi regulates the expression levels of other tumor antigens such as CD40, CD54 (ICAM-1), CD80, and CD86 in tumor cells.[32]−[35] More specifically, the repression of CD54 expression is another strategy tumors use to escape the immune response.[36] […] To investigate the effect of our glycosylated HDACi on the expression of CD54, we incubated Hep-G2 cells with STR-V-53 at IC50 and 2× IC50 for 24 h. We used immunoblotting to determine the effect of this treatment on CD54 expression. […]

HDAC6 = biological target: T1, HDAC6 (Homo sapiens, UniProt Q9UBN7); experiment: HDAC isoform inhibition (BPS Bioscience)
T1 sequence (Q9UBN7 1-1215): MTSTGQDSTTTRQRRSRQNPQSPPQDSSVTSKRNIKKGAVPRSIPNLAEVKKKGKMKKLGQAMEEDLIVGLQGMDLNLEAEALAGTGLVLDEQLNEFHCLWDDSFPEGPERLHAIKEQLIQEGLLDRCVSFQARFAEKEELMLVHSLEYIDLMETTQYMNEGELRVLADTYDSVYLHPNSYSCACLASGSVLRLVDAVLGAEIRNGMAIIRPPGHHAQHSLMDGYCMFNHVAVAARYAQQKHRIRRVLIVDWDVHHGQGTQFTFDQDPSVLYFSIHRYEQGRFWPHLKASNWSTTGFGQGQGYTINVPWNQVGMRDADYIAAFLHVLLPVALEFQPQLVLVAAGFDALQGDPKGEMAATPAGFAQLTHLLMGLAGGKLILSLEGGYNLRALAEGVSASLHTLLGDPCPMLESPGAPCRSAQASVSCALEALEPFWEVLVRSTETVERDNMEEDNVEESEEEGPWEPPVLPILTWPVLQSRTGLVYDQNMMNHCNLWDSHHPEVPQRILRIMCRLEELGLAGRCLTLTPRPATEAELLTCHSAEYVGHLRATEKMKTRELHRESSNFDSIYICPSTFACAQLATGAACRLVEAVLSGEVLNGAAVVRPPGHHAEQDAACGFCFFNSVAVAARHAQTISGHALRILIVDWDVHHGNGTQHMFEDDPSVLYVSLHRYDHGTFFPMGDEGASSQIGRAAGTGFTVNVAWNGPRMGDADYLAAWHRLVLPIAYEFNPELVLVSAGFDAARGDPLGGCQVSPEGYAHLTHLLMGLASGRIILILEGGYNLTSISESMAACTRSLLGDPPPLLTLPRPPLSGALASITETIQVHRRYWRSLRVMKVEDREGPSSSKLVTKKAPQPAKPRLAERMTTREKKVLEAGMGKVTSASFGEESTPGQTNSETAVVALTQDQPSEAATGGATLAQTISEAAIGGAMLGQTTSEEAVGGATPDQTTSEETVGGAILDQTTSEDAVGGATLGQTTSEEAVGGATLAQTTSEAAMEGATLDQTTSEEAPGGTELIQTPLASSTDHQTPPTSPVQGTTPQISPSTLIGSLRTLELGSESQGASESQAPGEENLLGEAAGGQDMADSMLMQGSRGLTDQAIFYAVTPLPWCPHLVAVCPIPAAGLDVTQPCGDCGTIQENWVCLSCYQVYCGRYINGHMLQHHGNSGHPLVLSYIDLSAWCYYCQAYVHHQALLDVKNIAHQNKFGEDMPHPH

Row | SMILES | PD-1 expression level (Hep-G2 cells [1]) | PD-L1 expression level (Hep-G2 cells [1]) | CD54 expression (Hep-G2 cells [2]) | pIC50 (HDAC6) | pIC50 (HDAC6; read-out: HDAC6 IC50, Table S1)
1 | O=C(CCCCCCn1cc(-c2ccc(O[C@H]3O[C@H](CO)[C@@H](O)[C@H](O)[C@H]3O)cc2)nn1)NO [STR-V-53] | downregulate | upregulate | upregulated | 8.46 | –
2 | O=C(CCCCCCC(=O)Nc1ccccc1)NO [SAHA, vorinostat, reference compound] | downregulate | upregulate | upregulated | – | –
3 | O=C(CCCCCCn1cc(-c2ccc(O[C@@H]3O[C@H](CO)[C@@H](O)[C@H](O)[C@H]3O)cc2)nn1)NO [STR-I-195] | – | – | – | – | 8.60
4 | O=C(CCCCCCn1cc(-c2ccc3cc(O[C@H]4O[C@H](CO)[C@@H](O)[C@H](O)[C@H]4O)ccc3c2)nn1)NO [STR-V-114] | – | – | – | – | 8.35
